Where two headings read alike, the source gives them in different places.
Key:
aHCC with MET alteration = tested on: aHCC with MET alteration; set-up: method as in PMID 31853265; conditions: cited from earlier work
[1] = tested on: patients with sorafenib pretreated advanced hepatocellular carcinoma (aHCC); experiment: Phase 1b dose escalation ('3 + 3'): DLTs and adverse events; type: in vivo
Description: (§1) In both study phases, eligible patients were ≥18 years old with aHCC, Child–Pugh Class A liver function score, Eastern Cooperative Oncology Group performance status 0 or 1, and measurable disease defined by Response Evaluation Criteria In Solid Tumors (RECIST) v1.1. […] Exclusion criteria included any prior systemic anti-cancer treatment for aHCC (besides sorafenib) and presence of symptomatic or untreated brain metastases. Full inclusion and exclusion criteria are shown in Supplementary Table 1.
(§2) Additional patients were enrolled at the RP2D.
(§3) The primary endpoint in Phase 1b was incidence of dose-limiting toxicities (DLTs) during Cycle 1. Details of DLTs are defined in Supplementary Table 3. Pharmacokinetics (PK) endpoints, including Cmax, and area under the concentration–time curve over the dosing interval at steady state (AUCτ,ss), were evaluated at Cycle 1, Day 15 as a secondary endpoint in Phase 1b. Selected efficacy measures were evaluated as secondary endpoints in Phase 1b.
In Phase 2, the primary endpoint was progression-free survival (PFS) status after 12 weeks of treatment, as assessed by the investigator per RECIST v1.1. Secondary endpoints included TTP, time to symptomatic progression, objective response rate (ORR), disease control rate (DCR) (all investigator-assessed and per RECIST v1.1), PFS per modified RECIST v1.1 (investigator-assessed), OS and biological response (defined as a decrease in AFP >20%). As sensitivity analyses, PFS and TTP were also evaluated by independent review. Safety was assessed via reporting of adverse events (AEs), graded according to National Cancer Institute Common Terminology and Criteria for Adverse Events v4.0.
(§4) Continuous variables, including PK data, were summarised using descriptive statistics; qualitative variables were summarised by means of counts and percentages.
Patients who were replaced during Cycle 1 were excluded from the analysis set.

[2] = tested on: sorafenib pretreated advanced hepatocellular carcinoma (aHCC); experiment: Phase 1b: tumour response and survival (RECIST v1.1, investigator); type: in vivo, human; conditions: for Best overall response CR / Best overall response Not evaluable / Best overall response PD / Best overall response PR / Best overall response SD: investigator RECIST v1.1
Description: This was an open-label, multicentre, integrated, Phase 1b/2 trial conducted across Europe and the US in patients with aHCC who had failed sorafenib treatment.
as §1
In Phase 2, patients were required to have MET overexpression, based on assessment of a tumour biopsy sample collected after sorafenib discontinuation and within 28 days before the first day of study treatment. MET overexpression was defined as moderate (2+) or strong (3+) staining for MET in ≥50% of tumour cells by immunohistochemistry (IHC) using the pharmDx anti-total MET (D1C2) rabbit monoclonal antibody (Dako, Agilent Technologies, Inc., Santa Clara, CA) (Supplementary Table 2). MET status was not required for Phase 1b, but was determined retrospectively in a biopsy sample collected within 28 days before the first day of study treatment. MET amplification status was determined for patients in Phase 1b and 2 using formalin-fixed paraffin-embedded tumour material by fluorescent in situ hybridisation. MET amplification was defined as MET:CEP7 ratio ≥2 or mean gene copy number ≥5.
as §2, §3
In both phases, tumour assessments were performed per RECIST v1.1 and modified RECIST[29] v1.1 on Day 1 of every second cycle from Cycle 3 to 13, and Day 1 of every fourth cycle thereafter. Exploratory endpoints included biomarkers of MET pathway activity (including MET amplification status).
as §4
Tumour response (best overall response, ORR, DCR) and biological response were summarised, along with corresponding two-sided exact Clopper–Pearson 90% confidence intervals (CIs). Kaplan–Meier estimates of median PFS, TTP, time to symptomatic progression and OS are presented, along with 90% CIs (calculated using the two-sided exact Clopper–Pearson method). All statistical analyses were performed using SAS® Software version 9.4 (Statistical Analysis System, SAS-Institute, Cary, North Carolina, US).

[3] = Phase 1b: pharmacokinetics at Cycle 1, Day 15; conditions: human, in vivo
Protocol: as §2, §3, §4

[4] = moderate (Child–Pugh B) hepatic impairment relative to control patients; cited from earlier work
[5] = Phase 1b, 300 mg cohort (n = 4)
[6] = Phase 1b, 500 mg cohort (n = 13)

Compound: CNC(=O)c1ccc(-c2cnc3ncc(Cc4ccc5ncccc5c4)n3n2)cc1F [capmatinib]
- objective response (aHCC with MET alteration; 3/10 patients, MET IHC 3+, or 2+ with MET gene copy number ≥5): 30%
- objective response (aHCC with MET alteration; 3/30 patients, MET H-score ≥50%, MET:CEP7 ratio ≥2 or MET gene copy number ≥5): 10%

Compound: CN1CCC(COc2cnc(-c3cccc(Cn4nc(-c5cccc(C#N)c5)ccc4=O)c3)nc2)CC1 [tepotinib]
- patients with at least one Grade ≥3 treatment-related AE [1]: 23.5%
- patients with at least one treatment-related AE [1]: 82.4%
- peripheral oedema, AE of any cause [1]: 76.5%
- dose-limiting toxicities (DLTs) during Cycle 1 ([1]; 300 and 500 mg QD cohorts): no DLTs
- AEs of any cause that led to death ([1]; N = 17): 23.5%
- patients with Grade ≥3 events of any cause ([1]; N = 17): 58.8%
- permanently discontinued treatment due to AEs of any cause ([1]; N = 17): 17.6%
- permanently discontinued treatment due to treatment-related AEs ([1]; N = 17 (peripheral oedema)): 5.9%
- disease control [2, 5]: 50%
- objective responses [2, 5]: 50%
- disease control [2, 6]: 30.8%
- objective responses [2, 6]: 0%
- DCR ([2]; Phase 1b, MET IHC 0): 100.0%
- objective responses ([2]; Phase 1b, MET IHC 0 (n = 1)): 0%
- DCR ([2]; Phase 1b, MET IHC 1+): 40.0%
- objective responses ([2]; Phase 1b, MET IHC 1+ (n = 5)): 20%
- DCR ([2]; Phase 1b, MET IHC 2+): 42.9%
- objective responses ([2]; Phase 1b, MET IHC 2+ (n = 7)): 14.3%
- DCR ([2]; Phase 1b, MET IHC 3+): 0%
- objective responses ([2]; Phase 1b, MET IHC 3+ (n = 2)): 0.0%
- Median TTP ([2]; Phase 1b, N = 17): 2.1 months
- median OS ([2]; Phase 1b, N = 17): 7.2 months
- median PFS ([2]; Phase 1b, N = 17): 1.5 months
- patients who had died at the time of the analysis ([2]; Phase 1b, N = 17): 82.4%
- patients with disease progression at the time of the analysis ([2]; Phase 1b, N = 17): 70.6%
- disease control ([2]; Phase 1b, overall (N = 17)): 35.3%
- best overall response partial response (PR) ([2]; Phase 1b, two of 17 patients, both 300 mg): 11.8%
- Best overall response CR ([2]; Phase 1b 300 mg/day (n = 4)): 0 n (%)
- Best overall response Not evaluable ([2]; Phase 1b 300 mg/day (n = 4)): 1 (25.0) n (%)
- Best overall response PD ([2]; Phase 1b 300 mg/day (n = 4)): 1 (25.0) n (%)
- Best overall response PR ([2]; Phase 1b 300 mg/day (n = 4)): 2 (50.0) n (%)
- Best overall response SD ([2]; Phase 1b 300 mg/day (n = 4)): 0 n (%)
- Best overall response CR ([2]; Phase 1b 500 mg/day (n = 13)): 0 n (%)
- Best overall response Not evaluable ([2]; Phase 1b 500 mg/day (n = 13)): 1 (7.7) n (%)
- Best overall response PD ([2]; Phase 1b 500 mg/day (n = 13)): 8 (61.5) n (%)
- Best overall response PR ([2]; Phase 1b 500 mg/day (n = 13)): 0 n (%)
- Best overall response SD ([2]; Phase 1b 500 mg/day (n = 13)): 4 (30.8) n (%)
- Best overall response CR ([2]; Phase 1b Total (N = 17)): 0 n (%)
- Best overall response Not evaluable ([2]; Phase 1b Total (N = 17)): 2 (11.8) n (%)
- Best overall response PD ([2]; Phase 1b Total (N = 17)): 9 (52.9) n (%)
- Best overall response PR ([2]; Phase 1b Total (N = 17)): 2 (11.8) n (%)
- Best overall response SD ([2]; Phase 1b Total (N = 17)): 4 (23.5) n (%)
- AUC ([3]; 300 mg QD, geometric mean (geometric CV 18.2%)): 15200 ng·h/mL
- Cmax ([3]; 300 mg QD, geometric mean (geometric CV 19.6%)): 734 ng/mL
- Cmax ([3]; 500 mg QD, geometric mean (geometric CV 44.6%)): 677 ng/mL
- AUC ([3]; 500 mg QD, geometric mean (geometric CV 50.4%)): 12900 ng·h/mL
- reduction in exposure, AUC from time 0 to infinity [4]: 12%
- reduction in exposure, Cmax [4]: 29%

From article PMC8292404 (British Journal of Cancer, 2021)
